Source: patent US5530126A, “Process for the preparation of substituted 6-(pyrazol-3yl)-1,4-benzoxazin-3-ones” (Monsanto Company, priority 1994, dated 1996)

What was measured:
Type in all cases: in vivo
[1] = system: Indian Mustard; assay: Post-emergence herbicide test; settings: Brassica juncea, read-out: % plant inhibition (Inmu); for inhibition at 1120 g/ha: 1.12 kg/ha
Outline: (§1)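 Post-emergence greenhouse spray: 2–3-wk-old plants in soil pans; atomizer at 170.3 kPa (10 psig); 1870 L/Ha carrier volume, ~0.4% v/v emulsifier. Read-out is % inhibition vs control at 10–14 d (usually 11 d), occasionally also 24–28 d.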

[2] = system: Wild buckwheat; assay: Post-emergence herbicide test; settings: Fallopia convolvulus, read-out: % plant inhibition (Wibw); for inhibition at 1120 g/ha: 1.12 kg/ha
Outline: as §1

[3] = system: Cocklebur; assay: Post-emergence herbicide test; settings: Xanthium strumarium, read-out: % plant inhibition (Cobu); for inhibition at 1120 g/ha: 1.12 kg/ha
Outline: as §1

[4] = system: Seedling johnsongrass; assay: Post-emergence herbicide test; settings: Sorghum halepense, read-out: % plant inhibition (Sejg); for inhibition at 1120 g/ha: 1.12 kg/ha
Outline: as §1

[5] = system: Velvetleaf; assay: Post-emergence herbicide test; settings: Abutilon theophrasti, read-out: % plant inhibition (Vele); for inhibition at 1120 g/ha: 1.12 kg/ha
Outline: as §1

[6] = system: Downy Brome; assay: Post-emergence herbicide test; settings: Bromus tectorum, read-out: % plant inhibition (Dobr); for inhibition at 1120 g/ha: 1.12 kg/ha
Outline: as §1

[7] = system: Annual bluegrass; assay: Post-emergence herbicide test; settings: read-out: % plant inhibition (Anbg); for inhibition at 1120 g/ha: 1.12 kg/ha
Outline: as §1

[8] = system: Barnyardgrass; assay: Post-emergence herbicide test; settings: Echinochloa crus-galli, read-out: % plant inhibition (Bygr); for inhibition at 1120 g/ha: 1.12 kg/ha
Outline: as §1

[9] = system: Morningglory; assay: Post-emergence herbicide test; settings: Ipomoea, read-out: % plant inhibition (Mogl); for inhibition at 1120 g/ha: 1.12 kg/ha
Outline: as §1

[10] = system: Yellow nutsedge; assay: Post-emergence herbicide test; settings: Cyperus, read-out: % plant inhibition (Yens); for inhibition at 1120 g/ha: 1.12 kg/ha
Outline: as §1

[11] = system: Indian Mustard; assay: Pre-emergence herbicide test; settings: Brassica juncea, read-out: % plant inhibition (Inmu); for inhibition at 1120 g/ha: 1.12 kg/ha
Outline: (§2)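 Pre-emergence greenhouse soil test. Compound applied to seeded soil surface before covering with untreated topsoil. Percent inhibition scored around day 11.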

[12] = system: Wild buckwheat; assay: Pre-emergence herbicide test; settings: Fallopia convolvulus, read-out: % plant inhibition (Wibw); for inhibition at 1120 g/ha: 1.12 kg/ha
Outline: as §2

[13] = system: Cocklebur; assay: Pre-emergence herbicide test; settings: Xanthium strumarium, read-out: % plant inhibition (Cobu); for inhibition at 1120 g/ha: 1.12 kg/ha
Outline: as §2

[14] = system: Seedling johnsongrass; assay: Pre-emergence herbicide test; settings: Sorghum halepense, read-out: % plant inhibition (Sejg); for inhibition at 1120 g/ha: 1.12 kg/ha
Outline: as §2

[15] = system: Velvetleaf; assay: Pre-emergence herbicide test; settings: Abutilon theophrasti, read-out: % plant inhibition (Vele); for inhibition at 1120 g/ha: 1.12 kg/ha
Outline: as §2

[16] = system: Downy Brome; assay: Pre-emergence herbicide test; settings: Bromus tectorum, read-out: % plant inhibition (Dobr); for inhibition at 1120 g/ha: 1.12 kg/ha
Outline: as §2

[17] = system: Annual bluegrass; assay: Pre-emergence herbicide test; settings: read-out: % plant inhibition (Anbg); for inhibition at 1120 g/ha: 1.12 kg/ha
Outline: as §2

[18] = system: Barnyardgrass; assay: Pre-emergence herbicide test; settings: Echinochloa crus-galli, read-out: % plant inhibition (Bygr); for inhibition at 1120 g/ha: 1.12 kg/ha
Outline: as §2

[19] = system: Morningglory; assay: Pre-emergence herbicide test; settings: Ipomoea, read-out: % plant inhibition (Mogl); for inhibition at 1120 g/ha: 1.12 kg/ha
Outline: as §2

[20] = system: Yellow nutsedge; assay: Pre-emergence herbicide test; settings: Cyperus, read-out: % plant inhibition (Yens); for inhibition at 1120 g/ha: 1.12 kg/ha
Outline: as §2

| SMILES | inhibition at 1120 g/ha [1] [%] | inhibition at 1120 g/ha [2] [%] | inhibition at 1120 g/ha [3] [%] | inhibition at 1120 g/ha [4] [%] | inhibition at 1120 g/ha [5] [%] | inhibition at 1120 g/ha [6] [%] | inhibition at 1120 g/ha [7] [%] | inhibition at 1120 g/ha [8] [%] | inhibition at 1120 g/ha [9] [%] | inhibition at 1120 g/ha [10] [%] | inhibition at 1120 g/ha [11] [%] | inhibition at 1120 g/ha [12] [%] | inhibition at 1120 g/ha [13] [%] | inhibition at 1120 g/ha [14] [%] | inhibition at 1120 g/ha [15] [%] | inhibition at 1120 g/ha [16] [%] | inhibition at 1120 g/ha [17] [%] | inhibition at 1120 g/ha [18] [%] | inhibition at 1120 g/ha [19] [%] | inhibition at 1120 g/ha [20] [%] | further results |
| --- | --- | --- | --- | --- | --- | --- | --- | --- | --- | --- | --- | --- | --- | --- | --- | --- | --- | --- | --- | --- | --- |
| Cn1nc(C(F)(F)F)c(Cl)c1-c1ccc(Cl)cc1 [Compound 66] | – | – | – | – | – | – | – | – | – | – | – | – | – | – | – | – | – | – | – | – | inhibition at 11210 g/ha ([1]; 11.21 kg/ha): 30%; inhibition at 11210 g/ha ([2]; 11.21 kg/ha): 100%; inhibition at 11210 g/ha ([3]; 11.21 kg/ha): 0%; inhibition at 11210 g/ha ([4]; 11.21 kg/ha): 80%; inhibition at 11210 g/ha ([5]; 11.21 kg/ha): 50%; inhibition at 11210 g/ha ([6]; 11.21 kg/ha): 30%; inhibition at 11210 g/ha ([7]; 11.21 kg/ha): 0%; inhibition at 11210 g/ha ([8]; 11.21 kg/ha): 20%; inhibition at 11210 g/ha ([9]; 11.21 kg/ha): 70%; inhibition at 11210 g/ha ([10]; 11.21 kg/ha): 0%; inhibition at 11210 g/ha ([11]; 11.21 kg/ha): 50%; inhibition at 11210 g/ha ([12]; 11.21 kg/ha): 90%; inhibition at 11210 g/ha ([13]; 11.21 kg/ha): 20%; inhibition at 11210 g/ha ([14]; 11.21 kg/ha): 90%; inhibition at 11210 g/ha ([15]; 11.21 kg/ha): 90%; inhibition at 11210 g/ha ([16]; 11.21 kg/ha): 60%; inhibition at 11210 g/ha ([17]; 11.21 kg/ha): 50%; inhibition at 11210 g/ha ([18]; 11.21 kg/ha): 10%; inhibition at 11210 g/ha ([19]; 11.21 kg/ha): 100%; inhibition at 11210 g/ha ([20]; 11.21 kg/ha): 0% |
| Cn1nc(-c2cc(COCCF)c(Cl)cc2F)c(Cl)c1C(F)(F)F [Compound 116] | 80 | 80 | 100 | 70 | 100 | 70 | 80 | 80 | 100 | 20 | 90 | 100 | 50 | 90 | 100 | 80 | 90 | 90 | 90 | 0 | – |
| Cn1nc(-c2cc(OCc3ccc(Cl)s3)c(Cl)cc2F)c(Cl)c1C(F)(F)F [Compound 252] | 100 | 100 | 100 | 100 | 100 | 100 | 90 | 90 | 100 | 20 | 10 | 10 | 30 | 60 | 20 | 60 | 30 | 20 | 40 | 0 | – |
| Cn1nc(-c2cc(NS(C)(=O)=O)c(Cl)cc2Cl)c(Cl)c1C(F)(F)F [Compound 91] | 50 | 80 | 100 | 40 | 40 | 40 | 50 | 30 | 60 | 10 | 90 | 70 | 20 | 0 | 100 | 0 | 0 | 0 | 90 | 0 | – |
| CC(C)CCOC(=O)COc1cc(-c2nn(C)c(C(F)(F)F)c2Cl)c(F)cc1Cl [Compound 288] | 90 | 100 | 100 | 20 | 100 | 0 | 0 | 50 | 100 | 10 | 20 | 90 | 30 | 0 | 100 | 0 | 0 | 0 | 100 | 0 | – |
